Reference: PubChem BioAssay AID1963866 (Molecular Pharmacology Branch, DTP, NCI, 2024)

Test system: PDC KRAS tumor spheroids with HUVEC/MSC, viability
Test: Anticancer human tumor 349418-098-R-PDC patient-derived lung adenocarcinoma cell line growth inhibition [KRAS2]
Details: for IC50: curve of first compound; for viability, T/C: stronger effect = lower value
How it was run: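 KRAS-mutant tumor cells were grown as spheroids with HUVEC endothelial cells and human MSCs as stroma. Targeted agents were tested alone and with KRAS pathway inhibitors. Doses started at or near clinical Cmax, or 10 microM, descending half-log.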

[1] = second compound 0.1 µM, first compound 0.01 µM
[2] = second compound 0.1 µM, first compound 0.0316 µM
[3] = second compound 0.1 µM, first compound 0.1 µM
[4] = second compound 0.316 µM, first compound 0.01 µM
[5] = second compound 0.316 µM, first compound 0.0316 µM
[6] = second compound 0.316 µM, first compound 0.1 µM
[7] = second compound 1 µM, first compound 0.01 µM
[8] = second compound 1 µM, first compound 0.0316 µM
[9] = second compound 1 µM, first compound 0.1 µM
[10] = second compound 3.16 µM, first compound 0.01 µM
[11] = second compound 3.16 µM, first compound 0.0316 µM
[12] = second compound 3.16 µM, first compound 0.1 µM
[13] = second compound 10 µM, first compound 0.01 µM
[14] = second compound 10 µM, first compound 0.0316 µM
[15] = second compound 10 µM, first compound 0.1 µM
[16] = second compound 0.1 µM, first compound 0.316 µM
[17] = second compound 0.1 µM, first compound 1 µM
[18] = second compound 0.1 µM, first compound 3.16 µM
[19] = second compound 0.316 µM, first compound 0.316 µM
[20] = second compound 0.316 µM, first compound 1 µM
[21] = second compound 0.316 µM, first compound 3.16 µM
[22] = second compound 1 µM, first compound 0.316 µM
[23] = second compound 1 µM, first compound 1 µM
[24] = second compound 1 µM, first compound 3.16 µM
[25] = second compound 3.16 µM, first compound 0.316 µM
[26] = second compound 3.16 µM, first compound 1 µM
[27] = second compound 3.16 µM, first compound 3.16 µM
[28] = second compound 10 µM, first compound 0.316 µM
[29] = second compound 10 µM, first compound 1 µM
[30] = second compound 10 µM, first compound 3.16 µM
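Also: spheroids exposed to compounds for seven days before readout.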

SMILES	IC50 (second compound 0.1 µM) [nM]	IC50 (second compound 0.316 µM) [nM]	IC50 (second compound 1 µM) [nM]	IC50 (second compound 3.16 µM) [nM]	IC50 (second compound 10 µM) [nM]	viability, T/C [1] [%]	viability, T/C [2] [%]	viability, T/C [3] [%]	viability, T/C [4] [%]	viability, T/C [5] [%]	viability, T/C [6] [%]	viability, T/C [7] [%]	viability, T/C [8] [%]	viability, T/C [9] [%]	viability, T/C [10] [%]	viability, T/C [11] [%]	viability, T/C [12] [%]	viability, T/C [13] [%]	viability, T/C [14] [%]	viability, T/C [15] [%]	further results
CC(C)n1nc(-c2ccc3oc(N)nc3c2)c2c(N)ncnc21 + CC1OCC2(CCN(c3cnc(Sc4ccnc(N)c4Cl)c(N)n3)CC2)C1N	1.04	0.866	0.926	0.929	0.95	7.28	6.47	6.12	6.85	5.49	5.49	7.37	5.67	5.72	7.85	6.12	5.21	7.11	5.4	4.86	viability, T/C (second compound 0.1 µM, first compound 0.000316 µM): 88.6%; viability, T/C (second compound 0.1 µM, first compound 0.001 µM): 51.3%; viability, T/C (second compound 0.1 µM, first compound 0.00316 µM): 12.7%; viability, T/C (second compound 0.316 µM, first compound 0.000316 µM): 84.3%; viability, T/C (second compound 0.316 µM, first compound 0.001 µM): 45.1%; viability, T/C (second compound 0.316 µM, first compound 0.00316 µM): 13.2%; viability, T/C (second compound 1 µM, first compound 0.000316 µM): 87%; viability, T/C (second compound 1 µM, first compound 0.001 µM): 47.4%; viability, T/C (second compound 1 µM, first compound 0.00316 µM): 15.5%; viability, T/C (second compound 3.16 µM, first compound 0.000316 µM): 66.7%; viability, T/C (second compound 3.16 µM, first compound 0.001 µM): 48.9%; viability, T/C (second compound 3.16 µM, first compound 0.00316 µM): 13.8%; viability, T/C (second compound 10 µM, first compound 0.000316 µM): 64.2%; viability, T/C (second compound 10 µM, first compound 0.001 µM): 49.4%; viability, T/C (second compound 10 µM, first compound 0.00316 µM): 15%
CC(=O)OC12COC1CC(O)C1(C)C(=O)C(O)C3=C(C)C(OC(=O)C(O)C(NC(=O)OC(C)(C)C)c4ccccc4)CC(O)(C(OC(=O)c4ccccc4)C21)C3(C)C (stereo not given) + C=CC(=O)N1CCN(c2nc(=O)n(-c3c(C)ccnc3C(C)C)c3nc(-c4c(O)cccc4F)c(F)cc23)C(C)C1	< 10	< 10	< 10	< 10	< 10	11.3	12.3	16	10.2	12.7	16.7	11.1	14.2	11.6	9.17	13.1	13.4	9.5	11	9.81	viability, T/C [16]: 14.9%; viability, T/C [17]: 24%; viability, T/C [18]: 21.2%; viability, T/C [19]: 17.9%; viability, T/C [20]: 18%; viability, T/C [21]: 20.1%; viability, T/C [22]: 14.8%; viability, T/C [23]: 20.5%; viability, T/C [24]: 18.3%; viability, T/C [25]: 12.6%; viability, T/C [26]: 15.5%; viability, T/C [27]: 15.9%; viability, T/C [28]: 9.76%; viability, T/C [29]: 11.7%; viability, T/C [30]: 11.9%
Cn1nccc1Nc1nccc(-c2cc3c(s2)C(C)(C)N(CCN2CCOCC2)C3=O)n1 + CC1OCC2(CCN(c3cnc(Sc4ccnc(N)c4Cl)c(N)n3)CC2)C1N	54.2	44.6	32.5	36.4	< 31.6		68.8	27		61.4	23.7		51.1	18.4		54.6	19.7		47.9	18.8	viability, T/C [16]: 17.7%; viability, T/C [17]: 8.51%; viability, T/C [18]: 5.52%; viability, T/C (second compound 0.1 µM, first compound 10 µM): 4.04%; viability, T/C [19]: 7.24%; viability, T/C [20]: 6.49%; viability, T/C [21]: 4.43%; viability, T/C (second compound 0.316 µM, first compound 10 µM): 4.11%; viability, T/C [22]: 8.88%; viability, T/C [23]: 4.35%; viability, T/C [24]: 4.16%; viability, T/C (second compound 1 µM, first compound 10 µM): 4.13%; viability, T/C [25]: 7.87%; viability, T/C [26]: 3.17%; viability, T/C [27]: 2.99%; viability, T/C (second compound 3.16 µM, first compound 10 µM): 3.09%; viability, T/C [28]: 6.03%; viability, T/C [29]: 2.89%; viability, T/C [30]: 2.98%; viability, T/C (second compound 10 µM, first compound 10 µM): 2.7%
